Test results: ChEMBL document CHEMBL4190365, “Synthesis and antiproliferative properties of new hydrophilic esters of triterpenic acids” (Eur J Med Chem, 2017)
Calls of active or inactive are those of the source. The calls are words filed in the database; no cut-off is given here.

How the values were obtained:
G-361 [1] = assay: Induction of apoptosis in human G361 cells assessed as effect on Bcl2 protein levels at 10 uM incubated for 24 hrs by Western blot method; assay type: functional, cell-based
G-361 [2] = assay: Induction of apoptosis in human G361 cells assessed as effect on Bcl2 protein levels at 1 uM incubated for 24 hrs by Western blot method; assay type: functional, cell-based
G-361 [3] = assay: Induction of cell cycle arrest in human G361 cells assessed as increase in accumulation at G0/G1 phase at 1 uM incubated for 24 hrs by propidium iodide staining based flow cytometry; assay type: functional
MCF7 = assay: Cytotoxicity in human MCF7 cells assessed as reduction in cell viability incubated for 72 hrs by calcein AM cytotoxicity assay; assay type: functional, cell-based; details: Homo sapiens, MCF7, 72 h
G-361 [4] = assay: Induction of apoptosis in human G361 cells assessed as induction of caspase-3 expression at 1 uM incubated for 24 hrs by Western blot method; assay type: functional, cell-based
G-361 [5] = assay: Induction of apoptosis in human G361 cells assessed as induction of caspase-7 degradation in to cleaved fragments at 10 uM incubated for 24 hrs by Western blot method; assay type: functional, cell-based
G-361 [6] = assay: Induction of apoptosis in human G361 cells assessed as induction of caspase-7 degradation in to cleaved fragments at 1 uM incubated for 24 hrs by Western blot method; assay type: functional, cell-based
G-361 [7] = assay: Induction of cell cycle arrest in human G361 cells assessed as increase in accumulation at subG1 phase at 10 uM incubated for 24 hrs by propidium iodide staining based flow cytometry; assay type: functional
G-361 [8] = assay: Induction of cell cycle arrest in human G361 cells assessed as reduction in accumulation at G2M phase at 10 uM incubated for 24 hrs by propidium iodide staining based flow cytometry; assay type: functional
G-361 [9] = assay: Induction of apoptosis in human G361 cells assessed as induction of PARP cleavage at 10 uM incubated for 24 hrs by Western blot method; assay type: functional, cell-based
G-361 [10] = assay: Induction of apoptosis in human G361 cells assessed as reduction Mcl1 protein levels at 1 uM incubated for 24 hrs by Western blot method; assay type: functional, cell-based
G-361 [11] = assay: Induction of cell cycle arrest in human G361 cells assessed as increase in accumulation at G0/G1 phase at 10 uM incubated for 24 hrs by propidium iodide staining based flow cytometry; assay type: functional
CCRF-CEM = assay: Cytotoxicity in human CEM cells assessed as reduction in cell viability incubated for 72 hrs by calcein AM cytotoxicity assay; assay type: functional, cell-based; details: Homo sapiens, CCRF-CEM, 72 h
HeLa = assay: Cytotoxicity in human HeLa cells assessed as reduction in cell viability incubated for 72 hrs by calcein AM cytotoxicity assay; assay type: functional, cell-based; details: Homo sapiens, HeLa, 72 h
G-361 [12] = assay: Induction of apoptosis in human G361 cells assessed as increase in caspase3/7 activity at 1 uM using Ac-DEVD-AMC substrate incubated for 24 hrs by fluorometric assay relative to untreated control; assay type: functional
G-361 [13] = assay: Induction of cell cycle arrest in human G361 cells assessed as reduction in accumulation at G2M phase at 1 uM incubated for 24 hrs by propidium iodide staining based flow cytometry; assay type: functional
G-361 [14] = assay: Induction of apoptosis in human G361 cells assessed as induction of caspase-3 expression at 10 uM incubated for 24 hrs by Western blot method; assay type: functional, cell-based
G-361 [15] = assay: Induction of apoptosis in human G361 cells assessed as reduction Mcl1 protein levels at 10 uM incubated for 24 hrs by Western blot method; assay type: functional, cell-based
G-361 [16] = assay: Induction of apoptosis in human G361 cells assessed as increase in caspase3/7 activity at 10 uM using Ac-DEVD-AMC substrate incubated for 24 hrs by fluorometric assay relative to untreated control; assay type: functional
G-361 [17] = assay: Induction of apoptosis in human G361 cells assessed as reduction total Rb protein levels at 10 uM incubated for 24 hrs by Western blot method; assay type: functional, cell-based
G-361 [18] = assay: Induction of cell cycle arrest in human G361 cells assessed as increase in accumulation at subG1 phase at 1 uM incubated for 24 hrs by propidium iodide staining based flow cytometry; assay type: functional
G-361 [19] = assay: Cytotoxicity in human G361 cells assessed as reduction in cell viability incubated for 72 hrs by calcein AM cytotoxicity assay; assay type: functional, cell-based; details: Homo sapiens, G-361, 72 h
BJ = assay: Cytotoxicity in human BJ cells assessed as reduction in cell viability incubated for 72 hrs by calcein AM cytotoxicity assay; assay type: functional, cell-based; details: Homo sapiens, BJ, 72 h

Row | SMILES | Activity (G-361 [1]) | Activity (G-361 [2]) | Activity (G-361 [3]) | IC50 (MCF7) | Activity (G-361 [4]) | Activity (G-361 [5]) | Activity (G-361 [6]) | Activity (G-361 [7]) | Activity (G-361 [8]) | Activity (G-361 [9]) | Activity (G-361 [10]) | Activity (G-361 [11]) | IC50 (CCRF-CEM) | IC50 (HeLa) | Activity (G-361 [13]) | Activity (G-361 [14]) | Activity (G-361 [15]) | Activity (G-361 [17]) | Activity (G-361 [18]) | IC50 (G-361 [19]) | further results
1 | C=C(C)[C@@H]1CC[C@]2(C(=O)O[C@@H]3O[C@H](COC(C)=O)[C@H](OC(C)=O)[C@H](OC(C)=O)[C@H]3OC(C)=O)CC[C@]3(C)[C@H](CC[C@@H]4[C@@]5(C)CC[C@H](O)C(C)(C)[C@@H]5CC[C@]43C)[C@@H]12 | inactive | inactive | Active | 2.5 µM | inactive | Active | Active | Active | Active | Active | Active | Active | 9 µM | 3.3 µM | Active | inactive | Active | Active | Active | 3.4 µM | Activity (G-361 [12]): inactive; Activity (G-361 [16]): inactive; IC50 (BJ): > 50 µM
2 | CC(=O)O[C@H]1CC[C@]2(C)[C@H]3CC[C@@H]4C5=C(C(C)C)C(=O)C[C@]5(C(=O)OCC(=O)OCc5ccccc5)CC[C@@]4(C)[C@]3(C)CC[C@H]2C1(C)C | inactive | inactive | Active | 1.8 µM | inactive | Active | Active | Active | Active | Active | Active | Active | 6 µM | 2.8 µM | Active | inactive | Active | Active | Active | 1.6 µM | fold change (FC) (G-361 [12]): 3; IC50 (BJ): > 50 µM
